# According to patent US11510983B2 (priority 2013, dated 2022):
# Tests used:
# [1] = set-up: species or system mice; details: mouse, in vivo
# [2] = tested on: A/California/7/2009 (H1N1); set-up: species or system BALB/c mice; details: mouse, in vivo
# [3] = pig, in vivo
# [4] = tested on: A/California/7/2009 (H1N1); set-up: species or system BALB/c mice; details: mouse, in vivo; remark: listed apart in the source
Molecule,raise of specific antibody titers in the presence vs. absence of laser pre-treatment [1],elevation of IgG2a production [2],type of immune response by IgG2a/IgG1 ratio [2],skin response at the injection site [3],time after which HAI titer started to decline to levels of non-adjuvanted flu vaccine [4]
OVA: protein model antigen ovalbumin,6 folds,–,–,–,–
"CC(C)Cn1cnc2c(N)nc3ccccc3c21 [IMIQ, 1-(2-Methylpropyl)-1H-imidazo[4,5-c]quinolin-4-amine]",–,5 fold,Th1-biased immune response,Diminished skin irritation,> 3 months
